Source: paper PMC6773951 (Scientific Reports, 2019)

Target: T1, hPIRT (human PIRT, phosphoinositide interacting regulator of TRPs) (Homo sapiens, UniProt P0C851)
T1 construct: full-length, recombinant from E. coli, reconstituted in DPC micelles; two TM helices, C-terminal amphipathic helix Asp125-Arg137; maleimide dye labelled for MST
Test: microscale thermophoresis
Format: binding
Details: DPC micelles (0.1% DPC), 50 mM HEPES pH 7.5, 25 °C; fluorophore-labelled hPIRT 400 nM; no TRPM8-S1S4; diC8 chain stated for the NMR titration, MST lipid called PIP2 only

T1 sequence (P0C851 whole entry): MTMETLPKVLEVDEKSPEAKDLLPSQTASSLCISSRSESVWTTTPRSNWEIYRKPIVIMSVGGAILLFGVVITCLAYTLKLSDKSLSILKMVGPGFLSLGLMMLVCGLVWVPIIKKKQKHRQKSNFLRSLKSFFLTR

- Kd: 0.18 ± 0.06 mole%
Structure (SMILES): CCCCCCCC(=O)OC[C@H](COP(=O)(O)O[C@@H]1[C@H](O)[C@H](O)[C@@H](OP(=O)(O)O)[C@H](OP(=O)(O)O)[C@H]1O)OC(=O)CCCCCCC [PIP2, 1,2-dioctanoyl-sn-glycero-3-phospho-(1′-myo-inositol-4′,5′-bisphosphate)]
